Reference: patent US9297813B2, “Targeting metabolic enzymes in human cancer” (Agency for Science, Technology and Research, priority 2010, dated 2016)

Columns and labels:
3T3 cells = assay: Adherent colony formation with methotrexate, 3T3 cells overexpressing GLDC; format: cell-based, mouse; settings: low doses of methotrexate
Experimental: (§1) (E) Effects of the anti-folate drug methotrexate on colony formation after GLDC overexpression or knockdown. 3T3 and HLF cells overexpressing GLDC were plated at clonal density and exposed to varying concentrations of methotrexate for 8 days. A549 cells with GLDC knockdown were plated in soft agar at clonal density and exposed to varying concentrations of methotrexate for 14 days.
(§2) Adherent colony formation was performed by seeding 200-3000 single cells into 10 cm-culture dish and maintained for 10-14 days in DMEM/10% FBS. Colonies were stained by Wright-Giemsa and those colonies containing more than 50 cells were counted. For methotrexate (Sigma) treatment assay, cells were maintained in growth medium containing serial dilution of methotrexate (0, 0.1, 0.2, 0.5, 1, 2, 5, 10, 20 uM) and fresh medium were changed every 3 days.

HLF cells = assay: Adherent colony formation with methotrexate, HLF cells overexpressing GLDC; format: cell-based, human; settings: low doses of methotrexate
Experimental: as §1, §2

A549 cells [1] = assay: Soft agar colony formation with methotrexate, A549 cells with GLDC knockdown; format: cell-based, human; settings: methotrexate in combination with GLDC shRNA versus either alone, 14 days
GLDC [2] = molecular target: T1, GLDC (Homo sapiens, UniProt P23378); settings: cited from earlier work
T1 sequence (P23378 36-1020): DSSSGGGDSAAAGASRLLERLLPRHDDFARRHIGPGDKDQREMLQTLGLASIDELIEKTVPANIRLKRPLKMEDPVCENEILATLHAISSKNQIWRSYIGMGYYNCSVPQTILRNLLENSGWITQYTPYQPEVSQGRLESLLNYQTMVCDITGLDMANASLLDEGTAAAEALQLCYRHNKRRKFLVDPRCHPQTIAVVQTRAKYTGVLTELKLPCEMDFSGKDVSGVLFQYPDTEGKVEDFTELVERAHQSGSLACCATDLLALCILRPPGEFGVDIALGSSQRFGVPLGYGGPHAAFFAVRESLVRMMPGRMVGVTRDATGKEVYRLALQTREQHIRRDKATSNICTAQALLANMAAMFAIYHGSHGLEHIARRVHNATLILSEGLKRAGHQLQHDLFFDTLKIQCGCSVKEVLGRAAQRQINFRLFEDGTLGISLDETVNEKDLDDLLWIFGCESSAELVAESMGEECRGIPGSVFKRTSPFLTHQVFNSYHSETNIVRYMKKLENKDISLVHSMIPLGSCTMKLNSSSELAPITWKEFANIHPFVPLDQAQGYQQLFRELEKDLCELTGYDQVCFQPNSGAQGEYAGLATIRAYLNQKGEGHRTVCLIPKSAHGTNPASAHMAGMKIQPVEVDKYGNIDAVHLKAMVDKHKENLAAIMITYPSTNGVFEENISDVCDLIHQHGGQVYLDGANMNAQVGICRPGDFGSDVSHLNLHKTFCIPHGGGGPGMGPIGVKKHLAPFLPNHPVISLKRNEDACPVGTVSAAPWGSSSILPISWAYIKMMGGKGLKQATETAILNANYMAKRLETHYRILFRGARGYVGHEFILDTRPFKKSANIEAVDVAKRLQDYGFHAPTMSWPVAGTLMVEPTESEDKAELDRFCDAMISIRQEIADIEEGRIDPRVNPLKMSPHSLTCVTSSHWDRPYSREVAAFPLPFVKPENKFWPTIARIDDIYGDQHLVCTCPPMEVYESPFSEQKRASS

[3] = system: cytoplasmic and mitochondrial aspartate aminotransferase; settings: cited from earlier work
A549 cells [4] = assay: Soft agar colony formation, sarcosine rescue after GLDC knockdown; format: cell-based, human; settings: 10 μM sarcosine
Experimental: (F) Effects of sarcosine on soft agar colony formation after GLDC knockdown in A549 cells. 1000 cells were seeded in soft agar at clonal density and exposed to 10 μM sarcosine for 14 days.
Soft agar assays were conducted as described previously (Viswanathan et al., 2009). We stained colonies with 1% INT and counted them after 3-4 weeks of growth. For sarcosine rescue experiment, 10 μM of sarcosine (sigma) or PBS were added to top cells layer of agar and growth medium containing sarcosine were changed every 3 days before counting colonies.

GLDC [5] = molecular target: T1, GLDC; assay: Victorin: inhibition of GLDC expression, tumour formation and cell proliferation (no method given)

## CN(Cc1cnc2nc(N)nc(N)c2n1)c1ccc(C(=O)N[C@@H](CCC(=O)O)C(=O)O)cc1 [methotrexate]
3T3 cells; 3T3 cells overexpressing GLDC, 8 days
  GLDC-induced proliferation (colony formation): specifically abrogated GLDC-induced proliferation
3T3 cells; control 3T3 cells
  effect on control cells: little effects
HLF cells; HLF cells overexpressing GLDC, 8 days
  GLDC-induced proliferation (colony formation): specifically abrogated GLDC-induced proliferation
HLF cells; control HLF cells
  effect on control cells: little effects
A549 cells [1]
  killing of transformed A549 cells: killed transformed A549 cells much more effectively than either alone

## NOCC(=O)O [Aminooxyacetate, (Aminooxy) acetate]
GLDC [2]
  GLDC binding and inhibition of GLDC activity: binds to GLDC and inhibits GLDC activity
[3]
  inhibition of aspartate aminotransferase or glutamate transaminases: powerful inhibitor

## CNCC(=O)O [sarcosine, N-methylglycine]
A549 cells [4]; 14 days, A549 cells with GLDC retroviral knockdown
  rescue of proliferation defect upon GLDC knockdown: significantly rescue the proliferation defect
A549 cells [4]; control A549 cells
  effect on control A549 cells: little effect

## CC(C[C@H](NC(=O)C(O)O)C(=O)N[C@H](C(=O)N[C@@H]1C(=O)N/C(=C/Cl)C(=O)N[C@H](C(=O)O)CC2=C(CC(O)C2=O)O[C@H]1C(C)C)[C@H](O)CCCN)C(Cl)Cl (some centres unmarked) [Victorin]
GLDC [5]
  inhibition of GLDC expression: able to inhibit GLDC expression
  tumour formation and cell proliferation: block or reduced tumour formation and cell proliferation
